Source: patent publication US9828350B2, “5,6-dihydro-2H-[1,4]oxazin-3-yl-amine derivatives useful as inhibitors of beta-secretase (BACE)” (Janssen Pharmaceutica NV, priority 2010, dated 2017)

Assays:
Abeta 1-42 = assay: Cellular αLisa assay in SKNBE2 cells, Abeta 1-42; assay type: cell-based, human; details: incubated for 18 hours; for IC50: Homo sapiens, SKNBE2, 18 h, read-out: Cellular αLisa assay in SKNBE2 cells Abeta 42 pIC50 (converted)
Outline: (§1)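 Secreted Abeta levels were measured by sandwich αLisa, pairing biotin-AbN/25 donor beads with Ab4G8 acceptor beads for total Abeta or cAb42/26 for Abeta 1-42, read at 615 nm after 650 nm excitation following 1 hour. Cells were SKNBE2 expressing wild-type hAPP695, exposed to compound for 18 hours.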

Abeta total = assay: Cellular αLisa assay in SKNBE2 cells, Abeta total; assay type: cell-based, human; details: incubated for 18 hours; for IC50: Homo sapiens, SKNBE2, 18 h, read-out: Cellular αLisa assay in SKNBE2 cells Abetatotal pIC50 (converted)
Outline: as §1

[1] = target: recombinant BACE1 protein (Homo sapiens, UniProt P56817); assay: Biochemical FRET based assay; details: recombinant BACE1 1 μg/ml, 120 minutes at room temperature, pH 5.0; for IC50: read-out: Biochemical FRET based assay pIC50 (converted)
Outline: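 Proteolysis was read as the rise in donor fluorescence (320 nm excitation, 405 nm emission) from T0 to T120, expressed in RFU. The reaction ran 120 minutes at room temperature at pH 5.0 in citrate buffer with 4% DMSO, using […] quenched Swedish APP peptide and 1 μg/ml BACE1.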

recombinant BACE1 protein, sequence (P56817 46-501): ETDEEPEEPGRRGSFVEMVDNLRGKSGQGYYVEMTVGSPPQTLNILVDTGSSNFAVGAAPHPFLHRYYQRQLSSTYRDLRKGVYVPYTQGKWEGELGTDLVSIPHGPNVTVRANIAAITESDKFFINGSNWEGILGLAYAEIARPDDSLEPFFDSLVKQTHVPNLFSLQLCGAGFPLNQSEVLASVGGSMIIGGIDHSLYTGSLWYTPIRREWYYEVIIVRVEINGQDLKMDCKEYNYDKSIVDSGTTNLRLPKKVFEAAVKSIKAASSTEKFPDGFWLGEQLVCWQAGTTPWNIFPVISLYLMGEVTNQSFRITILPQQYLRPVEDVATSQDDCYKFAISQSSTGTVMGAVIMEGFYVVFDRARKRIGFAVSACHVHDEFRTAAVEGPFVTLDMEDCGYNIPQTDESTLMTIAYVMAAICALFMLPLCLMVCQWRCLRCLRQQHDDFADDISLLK

SMILES | IC50 (Abeta 1-42) [nM] | IC50 (Abeta total) [nM] | IC50 [1] [nM] | Cellular αLisa assay in SKNBE2 cells Abeta 42 pIC50 (Abeta 1-42) | Cellular αLisa assay in SKNBE2 cells Abetatotal pIC50 (Abeta total) | Biochemical FRET based assay pIC50 [1]
CCC1(c2cc(NC(=O)c3cnc(OC)cn3)ccc2F)N=C(N)COC1C(F)(F)F (stereo not drawn) [Compound 285] | 14.8 | 15.8 | 100 |  |  | 
NC1=N[C@@](c2cccc(-c3cncc(F)c3)c2)(C2CC2)[C@H](C(F)(F)F)OC1 [Compound 270] | 46.8 | 47.9 | 132 |  |  | 
Cc1cnc(C(=O)Nc2cccc(C3(C)COCC(N)=N3)c2)cn1 (racemic) [Compound 7] |  |  |  | 6.49 | 6.53 | 5.39
COc1cncc(-c2cccc([C@@]3(C)CO[C@@H](C)C(N)=N3)c2)c1 (racemic) [Compound 19, cis-rac-5-[3-(5-methoxypyridin-3-yl)phenyl]-2,5-dimethyl-5,6-dihydro-2H-1,4-oxazin-3-amine] |  |  |  | 6.29 | 6.352 | 5.38
CC1(c2cc(NC(=O)c3ncc(Cl)cc3F)ccc2F)N=C(N)COC1F (single isomer, unassigned) [Compound 133] |  |  | 25.7 | 8.18 | 8.21 | 
C[C@@]1(c2ccnc(-c3cc(Cl)cc(Cl)c3)c2)N=C(N)CO[C@H]1F (single isomer, unassigned) [Compound 278, (5S*,6S*)-5-[2-(3,5-dichlorophenyl)pyridin-4-yl]-6-fluoro-5-methyl-5,6-dihydro-2H-1,4-oxazin-3-amine] | 3240 | 3160 | 8710 |  |  | 
CC1(c2cccc(NC(=O)c3ccc(Cl)cn3)c2)COC(F)(C(F)(F)F)C(N)=N1 (single isomer, unassigned) [Compound 154] |  |  |  | <5 | <5 | <4.52
C[C@@]1(c2cc(-c3cc(Cl)cc(Cl)c3)c(F)cc2F)COCC(N)=N1 [Compound 48] |  |  |  | 6.19 | 6.22 | 5.73
CC1(c2cccc(NC(=O)c3ncc(Cl)cc3F)c2)N=C(N)COC1(F)C(F)(F)F (single isomer, unassigned) [Compound 173] |  |  | 21.9 | 8.11 | 8.07 | 
CC1(c2cc(-c3cncc(Cl)c3)c(F)cc2F)COCC(N)=N1 (stereo not drawn) [Compound 23] |  |  |  | 6.89 | 6.85 | 5.86
CC1(c2cccc(NC(=O)c3ccc(C#N)cc3)c2)COCC(N)=N1.Cl (racemic) [Compound 42] |  |  |  | 5.85 | 5.9 | 5.74
NC1=N[C@@](c2cccc(NC(=O)c3ncc(Cl)cc3Cl)c2)(C2CC2)[C@H](F)OC1 [Compound 276] | 41.7 | 41.7 | 174 |  |  | 
NC1=N[C@@](c2cc(-c3cncnc3)ccc2F)(C2CC2)[C@](F)(C(F)(F)F)OC1 [Compound 312] | 3240 | 2820 | 661 |  |  | 
CC1(c2cccc(NC(=O)c3ccc(Cl)cn3)c2)COC(F)(C(F)(F)F)C(N)=N1 (single isomer, unassigned) [Compound 70] |  |  |  | 5.17 | 5.31 | 5.77
COc1cncc(-c2ccc(F)c(C3(C)COCC(N)=N3)c2)c1 (single isomer, unassigned) [Compound 56] |  |  |  | 7.02 | 7.1 | 5.69
NC1=N[C@@](c2cc(-c3cncnc3)ccc2F)(C2CC2)[C@H](F)OC1 [Compound 224, (5R,6S)-5-cyclopropyl-6-fluoro-5-(2-fluoro-5-pyrimidin-5-ylphenyl)-5,6-dihydro-2H-1,4-oxazin-3-amine] | > 10000 | > 10000 | 14800 |  |  | 
N#Cc1ccc(C(=O)Nc2ccc(F)c([C@@]3(C4CC4)N=C(N)CO[C@@H]3F)c2)nc1 [Compound 214, (2R,3R)—N-[3-(5-amino-3-cyclopropyl-2-fluoro-3,6-dihydro-2H-1,4-oxazin-3-yl)-4-fluorophenyl]-5-cyanopyridine-2-carboxamide] | 794 | 708 | 110 |  |  | 
CCC1(c2cc(-c3cncc(C#N)c3)ccc2F)N=C(N)COC1C(F)(F)F (stereo not drawn) [Compound 310] | 776 | 617 | 3310 |  |  | 
NC1=N[C@@](c2cccc(NC(=O)c3ncc(Cl)cc3F)c2)(C2CC2)[C@H](C(F)(F)F)OC1 [Compound 288] | 7.76 | 7.41 | 33.1 |  |  | 
COc1cnc(C(=O)Nc2ccc(F)c([C@@]3(C4CC4)N=C(N)CO[C@H]3C(F)(F)F)c2)cn1 [Compound 230] | 13.8 | 13.5 | 45.7 |  |  | 
CC1(c2cc(-c3cncnc3)ccc2F)N=C(N)COC1(F)C(F)(F)F (single isomer, unassigned) [Compound 111] | 437 | 490 | 1480 |  |  | 
CCC1(c2cc(NC(=O)c3cnc(OC)cn3)ccc2F)N=C(N)COC1F (stereo not drawn) [Compound 282] |  |  | 891 | 6.56 | 6.65 | 
COc1cnc(C(=O)Nc2cccc([C@@]3(C4CC4)N=C(N)CO[C@@]3(F)C(F)(F)F)c2)cn1 [Compound 203] | 37.2 | 37.2 | 20.4 |  |  | 
CC1(c2cc(NC(=O)c3ccc(Cl)cn3)c(F)cc2F)COCC(N)=N1 (racemic) [Compound 60] |  |  |  | 6.89 | 6.92 | 5.65
N#Cc1cncc(-c2cccc([C@@]3(C4CC4)N=C(N)CO[C@H]3C(F)(F)F)c2)c1 [Compound 253, (5R,6R)-5-{3-[5-amino-3-cyclopropyl-2-(trifluoromethyl)-3,6-dihydro-2H-1,4-oxazin-3-yl]phenyl}pyridine-3-carbonitrile] | 49 | 50.1 | 155 |  |  | 
CC1(c2cccc(-c3cncc(C#N)c3)c2)N=C(N)COC1C(F)(F)F (stereo not drawn) [Compound 171] | 135 | 129 | 1120 |  |  | 
CC1(c2cccc(NC(=O)c3ccc(C#N)cn3)c2)COCC(N)=N1 (racemic) [Compound 64] |  |  |  | 7.36 | 7.37 | 6.41
COc1cncc(-c2cccc(C3(C)N=C(N)COC3(F)C(F)(F)F)c2)c1 (single isomer, unassigned) [Compound 141] |  |  | > 30200 | <5 | <5 | 
CC1(c2cc(NC(=O)c3ccc(C(F)(F)F)cn3)c(F)cc2F)COCC(N)=N1 (racemic) [Compound 13] |  |  |  | 6.83 | 6.84 | 5.37
CC#Cc1cncc(-c2ccc(F)c([C@@]3(C4CC4)N=C(N)CO[C@H]3F)c2)c1 [Compound 293] | 1860 | 1550 | 1380 |  |  | 
